Molecular target: T1, HDAC6 (Homo sapiens, UniProt Q9UBN7)
T1 sequence (Q9UBN7 1-1215): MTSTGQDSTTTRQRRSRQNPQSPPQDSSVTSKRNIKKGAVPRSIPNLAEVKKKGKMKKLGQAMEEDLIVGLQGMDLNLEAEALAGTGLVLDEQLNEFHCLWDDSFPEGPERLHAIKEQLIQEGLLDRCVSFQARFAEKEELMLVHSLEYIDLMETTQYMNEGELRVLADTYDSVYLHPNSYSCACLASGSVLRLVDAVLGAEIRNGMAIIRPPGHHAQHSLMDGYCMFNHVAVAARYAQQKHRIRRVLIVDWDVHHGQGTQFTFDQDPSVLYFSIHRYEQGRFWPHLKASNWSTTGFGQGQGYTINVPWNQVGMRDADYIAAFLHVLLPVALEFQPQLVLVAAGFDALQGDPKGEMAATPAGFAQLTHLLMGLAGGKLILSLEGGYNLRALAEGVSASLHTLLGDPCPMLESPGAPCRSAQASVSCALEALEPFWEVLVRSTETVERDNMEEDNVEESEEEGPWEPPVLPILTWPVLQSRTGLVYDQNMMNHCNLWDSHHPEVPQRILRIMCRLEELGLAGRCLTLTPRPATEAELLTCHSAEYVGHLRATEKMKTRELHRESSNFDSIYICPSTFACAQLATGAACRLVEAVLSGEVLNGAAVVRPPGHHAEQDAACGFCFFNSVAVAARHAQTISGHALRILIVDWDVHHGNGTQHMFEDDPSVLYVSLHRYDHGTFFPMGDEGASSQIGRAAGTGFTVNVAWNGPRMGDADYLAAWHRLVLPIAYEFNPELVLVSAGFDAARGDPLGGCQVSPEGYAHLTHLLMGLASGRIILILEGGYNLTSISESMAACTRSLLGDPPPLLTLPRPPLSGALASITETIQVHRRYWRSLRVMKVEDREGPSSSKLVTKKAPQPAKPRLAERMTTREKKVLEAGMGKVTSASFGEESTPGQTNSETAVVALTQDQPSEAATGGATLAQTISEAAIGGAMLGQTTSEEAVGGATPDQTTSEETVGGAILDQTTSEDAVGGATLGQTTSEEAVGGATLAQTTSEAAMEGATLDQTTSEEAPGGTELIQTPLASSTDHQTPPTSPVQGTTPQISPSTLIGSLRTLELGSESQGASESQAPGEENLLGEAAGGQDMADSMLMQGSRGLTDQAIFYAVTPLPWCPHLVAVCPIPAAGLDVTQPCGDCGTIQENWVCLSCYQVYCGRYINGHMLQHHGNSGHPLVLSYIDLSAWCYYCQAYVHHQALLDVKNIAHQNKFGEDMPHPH
Experiment: HDAC6 assay with acetylated p53 peptide (residues 379–382, RHKKAc-AMC) as substrate
Type: biochemical

Structure (SMILES)	concentration showing inhibitory activity on HDAC6
Oc1cc(-c2ccc(NCc3ccccc3)cc2)on1 [Compound 23]	below 10 µM
Oc1cc(-c2ccc3c(c2)OCO3)on1 [Compound 25]	below 10 µM
